Results on one molecule are retold here after US7223737B1, “Method of treating dry eye disorders using glycosides” (Alcon, Inc., priority 2004, dated 2007).

For this assay, the system named is human primary corneal epithelial cells. Kind of assay: mucin secretion assay using human primary corneal epithelial cells. The assay is classed as cell-based. The settings on record: for Soluble Mucin Units/well: 45-minute incubation at 37° C., conditioned medium; for Total Mucin Units/well: soluble plus membrane-associated (NAC wash) mucin; for Stimulation Index: ratio of Total Mucin Units/well test solution to Control.

`CCCCCCCCCCCCO[C@@H]1O[C@H](CO)[C@@H](O[C@H]2O[C@H](CO)[C@@H](O)[C@H](O)[C@H]2O)[C@H](O)[C@H]1O` [Dodecylmaltoside, n-Dodecyl-beta-D-maltoside]: the “Soluble Mucin Units/well” value runs as follows: (0.0001% DDM) 10 ± 0.6 Units/well; (0.001% DDM) 24.7 ± 2.7 Units/well; (0.01% DDM) 13.2 ± 0.5 Units/well. Besides, the “Total Mucin Units/well” value runs as follows: (0.0001% DDM) 18.7 ± 0.2 Units/well; (0.001% DDM) 32.3 ± 2.9 Units/well; (0.01% DDM) 30.17 ± 0.6 Units/well. The “Stimulation Index” value reads like this: (0.0001% DDM) 1.23; (0.001% DDM) 2.12; (0.01% DDM) 1.98.
